Measured values: patent US12396936B2, “Antimicrobial composition for tackling malodour” (Conopco, Inc., priority 2020, dated 2025)

System: S. hominis ATCC 27844
Assay: Malodour assay using Lead acetate method (H2S blackening of lead acetate paper, ΔE by reflectometer)
Format: cell-based
Conditions: active wt % as printed per example; TSB with 0.1% L-cysteine-HCl, 37° C. overnight, triplicates; calculated from ΔE; control = 100
Method: The actives as shown in Table—1 below were subjected to malodour reduction assay as described below: • Malodour assay using Lead acetate method: Preparation of Bacterial Culture:
The test organisms was grown on TSA (Tryptic Soya Agar) plates overnight (22±2 hr). The organism was not more than 3 passages removed from the original source. The cell number was adjusted by re-suspending it in a suitable amount of physiological saline sufficient to achieve the required cell number based on optical density of the cells. The optical density (OD at 620 nm) of the cells were standardized to the cell number for the test organism using a spectrophotometer. A minimum final suspension of 1.0×10^8 CFU/mL was achieved by adjusting the OD to 0.2 in saline for the malodour assay.
A 1% Lead acetate solution was made in distilled water. […]
The malodour assay was adapted from the method of Moore et al, 2003 and modified into a 96 well plate format. […] The intensity of the colour was recorded using a reflectometer as L*a*b* values.
The difference between the initial and final L*a*b* values ΔE, was used to quantify malodour formation.) ΔE=√{square root over ((Li−Lf)^2+(ai−af)^2+(bi−bf)^2)}
The percentage malodour was calculated from ΔE measured using the above assay for the various actives or combinations.

Structure (SMILES): CCCCCCc1ccc(O)cc1O [B, Hexyl resorcinol]
- Malodour generation (%): 96%
